The numbers were not newly measured in US12343373B2, “Glycopeptide antibiotics liquid formulations and methods and uses thereof” (SOMERSET THERAPEUTICS, LLC, priority 2020, dated 2025), which cites them from elsewhere.

The conditions of data set [1]: oral dosing.

Read-outs that look alike come from different tables or passages of the source.

Take `CSCC[C@H](NC(C)=O)C(=O)O` [NALM, N-acetyl-L-methionine]: in data set [1], the hydrolysis to methionine entry was “completely hydrolyzed to L-methionine and acetic acid”. As for `CSCC[C@@H](NC(C)=O)C(=O)O` [NADM, N-acetyl-D-methionine], in data set [1], the hydrolysis to methionine entry is “only minimally hydrolyzed to D- and L-methionine”. `CC(=O)N[C@H](C)C(=O)O` [N-acetyl D-alanine (NADA), N-acetyl-D-alanine]: the embryo-fetal toxicity entry (animal reproduction studies, product label black box warning) is “caused fetal malformations”. Take “polyethylene glycol 400 [polyethylene glycol (PEG 400)]”: the embryo-fetal toxicity entry (in vivo) is “caused fetal malformations”.
